From patent US20120295914A1, “COMBINATION OF ADRENERGIC RECEPTOR AGONIST ALPHA-1 OR ALPHA-2, PREFERABLY BRIMONIDINE WITH FILLERS, PREFERABLY HYALURONIC ACID” (Galderma Research & Development, priority 2009, published 2012)

Key:
[1] = in vivo; cited from earlier work
α2A-adrenoceptor = α2A-adrenoceptor (Sus scrofa, UniProt P18871); settings: porcine species; Wikberg-Matsson and Simonsen 2001; cited from earlier work
[2] = tested on: dermabraded skin (cutaneous reactions, redness/bleeding)
From the text: In Vivo Dermabrasion Assays in Minipig Minizone Model Using a BURANE XL Laser and Skin Interaction with Brimonidine Gel
The objectives of this study were to assess the local dermal effect of single dermal application of Brimonidine Gel placebo or 1% applied on delimited abraded mini-zone (2.8 cm^2 and different dermabraded skin conditions) in the Gottingen® minipig.
One female Göttingen® minipig (naïve), between 4 and 8 months old, received Dermal (topical) application of Brimonidine Gel at 1% on delimited mini-zones (2.8 cm^2, using a Ringflost®).
each zone is clipped free from hair. On the clipped area (dorsum, avoiding the spinal column and the intra-scapular area), 4 minizones (2 on either side) is delimited using Ringflost® and surrounded with an indelible pen.
The animal is anesthetized (Zoletil®) before dermabrasion. Each minizone is disinfected with chlorexidine. The experimental conditions used for each zone is set as follows:
The Brimonidine gel 1% is gently applied 5 minutes prior to the dermabrasion procedure.
The cutaneous reaction is evaluated immediately, and 2-5 and 10 minutes after the dermabrasion procedure. The skin is examined to evaluate the degree of erythema, edema, desquamation, scab formation and any other lesions. Cutaneous reaction is evaluated according to the grading scale describe in “OCDE Guideline No. 404. Acute dermal irritation/corrosion”. […]

Sequence of α2A-adrenoceptor (P18871 whole entry): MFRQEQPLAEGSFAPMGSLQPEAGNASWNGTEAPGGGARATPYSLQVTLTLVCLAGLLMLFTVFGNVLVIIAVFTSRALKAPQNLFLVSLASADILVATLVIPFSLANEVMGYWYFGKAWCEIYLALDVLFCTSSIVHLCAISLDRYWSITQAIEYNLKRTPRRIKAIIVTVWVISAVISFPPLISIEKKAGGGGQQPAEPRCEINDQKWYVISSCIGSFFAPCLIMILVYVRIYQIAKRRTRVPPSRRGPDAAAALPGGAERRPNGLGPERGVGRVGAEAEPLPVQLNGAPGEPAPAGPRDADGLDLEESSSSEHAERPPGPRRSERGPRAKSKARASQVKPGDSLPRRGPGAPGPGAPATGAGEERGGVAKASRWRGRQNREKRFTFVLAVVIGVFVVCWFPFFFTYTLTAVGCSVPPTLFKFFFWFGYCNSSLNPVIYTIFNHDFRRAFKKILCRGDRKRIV

Brc1c(NC2=NCCN2)ccc2nccnc12 [Brimonidine, (5-Bromo-quinoxalin-6-yl)-(4,5-dihydro-1H-imidazol-2-yl)-amine]
half-life [1]: 4 h | vasoconstrictor activity (α2A-adrenoceptor): potent vasoconstrictor | cutaneous reactions (bruising or bleeding) during aesthetic or surgery procedures ([2]; Brimonidine gel 1% topical on dermabraded minizones, conclusion of Example 3): capable of decreasing cutaneous reactions | vasoconstrictor effect (comparative analysis of pictures Z3 vs Z4) ([2]; Brimonidine gel 1% topical, applied 5 minutes prior to dermabrasion, 10 j/cm2, 6 passes, treated zone Z4 vs non-treated Z3, one female minipig): visually more evident starting from 5 min post-dermabrasion until 14 min and beyond
